In the NIST ThermoML archive (doi:10.1016/j.jct.2012.08.020):

Assay: xn = mol fraction of the nth substance listed
Conditions: Fluid (supercritical or subcritical phases)

CCCCC(COC(=O)C(=O)OC)OC(=O)C(=O)OC (stereo not given) [1,2-hexanediol bis-(methoxycarbonylformate)] + O=C=O
Conditions | mass density [kg/m3]
313 K, x1 = 0.00173 | 436.05
313 K, x1 = 0.00309 | 492.75
313 K, x1 = 0.00442 | 517.19
313 K, x1 = 0.00567 | 538.22
313 K, x1 = 0.00686 | 556.08
333 K, x1 = 0.00241 | 316.53
333 K, x1 = 0.00416 | 366.67
333 K, x1 = 0.00576 | 397.42
333 K, x1 = 0.00739 | 413.01
333 K, x1 = 0.00874 | 436.26
353 K, x1 = 0.00318 | 239.41
353 K, x1 = 0.00558 | 273.18
353 K, x1 = 0.00729 | 314.05
353 K, x1 = 0.00921 | 331.22
353 K, x1 = 0.01094 | 348.73

CCCCC(COC(=O)C(=O)OCC)OC(=O)C(=O)OCC (stereo not given) [1,2-hexanediol bis-(ethoxycarbonylformate)] + O=C=O
Conditions | mass density [kg/m3]
313 K, x1 = 0.00125 | 556.08
313 K, x1 = 0.00238 | 584.52
313 K, x1 = 0.00345 | 606.4
313 K, x1 = 0.00447 | 624.05
313 K, x1 = 0.00552 | 631.74
333 K, x1 = 0.00179 | 389.65
333 K, x1 = 0.00331 | 420.8
333 K, x1 = 0.00471 | 443.89
333 K, x1 = 0.00608 | 458.89
333 K, x1 = 0.00748 | 466.23
353 K, x1 = 0.00251 | 277.12
353 K, x1 = 0.00456 | 305.62
353 K, x1 = 0.00632 | 331.22
353 K, x1 = 0.00821 | 339.94
353 K, x1 = 0.00988 | 353.15

CCCCC(O)CO (stereo not given) [1,2-hexanediol] + O=C=O
Conditions | mass density [kg/m3]
313 K, x1 = 0.00073 | 677.07
313 K, x1 = 0.00136 | 730.15
313 K, x1 = 0.00197 | 756.91
313 K, x1 = 0.00256 | 778.16
313 K, x1 = 0.0031 | 802.54
333 K, x1 = 0.00091 | 547.92
333 K, x1 = 0.00169 | 589.92
333 K, x1 = 0.00241 | 619.81
333 K, x1 = 0.00312 | 638.84
333 K, x1 = 0.0038 | 655.62
353 K, x1 = 0.00109 | 457.46
353 K, x1 = 0.00196 | 506.95
353 K, x1 = 0.00281 | 530.61
353 K, x1 = 0.00363 | 549.26
353 K, x1 = 0.00442 | 563.72
